Assay results published in the NIST ThermoML archive (doi:10.1016/j.jct.2014.07.018).

Assay: molar heat capacity at constant pressure
Settings: 101.33 kPa, Vacuum adiabatic calorimetry

CCCCn1cc[n+](C)c1.[I-] [1-butyl-3-methylimidazolium iodide]
molar heat capacity at constant pressure [J/K/mol]
Settings | Crystal | Glass
4.858 K | 0.768 | –
5 K | 0.845 | 1.57
5.042 K | – | 1.601
5.112 K | 0.909 | –
5.32 K | – | 1.862
5.371 K | 1.07 | –
5.604 K | – | 2.149
5.638 K | 1.249 | –
5.895 K | – | 2.463
5.91 K | 1.452 | –
6.217 K | 1.701 | –
6.222 K | – | 2.842
6.56 K | 2.006 | –
6.586 K | – | 3.292
6.91 K | 2.343 | –
6.955 K | – | 3.776
7.265 K | 2.714 | –
7.328 K | – | 4.295
7.496 K | – | 4.532
7.625 K | 3.114 | –
7.705 K | – | 4.838
7.884 K | – | 5.11
7.99 K | 3.553 | –
8.267 K | – | 5.703
8.357 K | 4.021 | –
8.654 K | – | 6.323
8.728 K | 4.513 | –
9.042 K | – | 6.967
9.104 K | 5.04 | –
9.433 K | – | 7.63
9.483 K | 5.597 | –
9.825 K | – | 8.316
9.868 K | 6.177 | –
10 K | 6.39 | 8.62
10.33 K | – | 9.205
10.36 K | 6.957 | –
10.94 K | – | 10.33
10.95 K | 7.92 | –
11.56 K | 8.937 | 11.49
12.16 K | 9.99 | –
12.18 K | – | 12.66
12.77 K | 11.08 | –
12.8 K | – | 13.88
13.38 K | 12.19 | –
13.42 K | – | 15.11
14 K | 13.34 | –
14.05 K | – | 16.37
14.63 K | 14.54 | –
14.69 K | – | 17.68
15 K | 15.25 | 18.31
15.25 K | 15.73 | –
15.47 K | – | 19.26
15.99 K | 17.18 | –
16.42 K | – | 21.23
16.84 K | 18.83 | –
17.37 K | – | 23.19
17.7 K | 20.48 | –
18.32 K | – | 25.15
18.56 K | 22.1 | –
19.27 K | – | 27.09
19.42 K | 23.73 | –
20 K | 24.83 | 28.59
20.22 K | – | 29.03
20.29 K | 25.36 | –
21.48 K | – | 31.59
21.5 K | 27.65 | –
23.05 K | – | 34.73
23.06 K | 30.6 | –
24.62 K | 33.53 | –
24.63 K | – | 37.87
25 K | 34.2 | 38.6
26.19 K | 36.35 | –
26.21 K | – | 40.93
27.59 K | 38.83 | –
27.79 K | – | 43.88
29.09 K | 41.41 | –
29.96 K | – | 47.88
30 K | 42.93 | 47.93
30.68 K | 44.04 | –
32.35 K | – | 52.05
32.43 K | 46.84 | –
34.29 K | – | 55.25
34.33 K | 49.79 | –
35 K | 50.8 | 56.37
36.21 K | – | 58.25
36.25 K | 52.67 | –
38.13 K | – | 61.21
38.16 K | 55.41 | –
40 K | 58.01 | 64
40.04 K | – | 64.03
40.07 K | 58.07 | –
42.06 K | – | 66.96
42.08 K | 60.84 | –
44.18 K | – | 69.94
44.19 K | 63.71 | –
45 K | 64.77 | 71.05
46.3 K | 66.48 | 72.87
48.41 K | 69.11 | –
48.42 K | – | 75.66
50 K | 71.06 | 77.66
50.52 K | 71.72 | –
50.54 K | – | 78.37
52.64 K | 74.22 | –
52.66 K | – | 80.96
54.76 K | 76.59 | –
54.78 K | – | 83.48
56.88 K | 78.93 | –
56.91 K | – | 85.88
59.01 K | 81.2 | –
59.04 K | – | 88.27
60 K | 82.26 | 89.36
61.14 K | 83.4 | –
61.17 K | – | 90.59
63.27 K | 85.56 | –
63.31 K | – | 92.93
65.4 K | 87.69 | –
65.45 K | – | 95.14
67.54 K | 89.76 | –
67.59 K | – | 97.4
69.67 K | 91.79 | –
69.73 K | – | 99.56
70 K | 92.11 | 99.8
71.91 K | 93.89 | –
71.97 K | – | 101.8
74.26 K | 96.02 | –
74.32 K | – | 104.1
76.61 K | 98.12 | –
76.67 K | – | 106.3
78.96 K | 100.2 | –
